Results on 15 molecules are retold here after US20180318311A1, “TRICYCLIC 2-QUINOLINONES AS ANTIBACTERIALS” (priority 2017, published 2018).

Molecules are shown by their SMILES. ≈ marks a conversion by molar mass, not a printed value. A value given as a limit tells only on which side of the number the result lay.

Holding throughout (type): cell-based
Test [1] has as its system S. aureus NB01006-AVR005, gyrA (S84L), grlA (580F) and grlB (E471K). Kind of test: microbe, parasite or virus in culture. The settings on record: Staphylococcus aureus, 20 h, read-out: Antibacterial activity (MIC) NB01006-AVR005. In outline:
(§1)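 CLSI broth microdilution in cation-adjusted Mueller-Hinton broth, inoculum about 5×10^5 CFU/mL from overnight MHA cultures. Two-fold compound dilutions in 1% final DMSO; plates incubated 20 h at 35° C in ambient air. MIC (μg/mL) was the lowest concentration preventing visible growth, checked by OD600 and visual inspection.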

In test [2] the test system is P. aeruginosa NB52019, wild-type PAO1 strain. Kind of test: MIC by broth microdilution, P. aeruginosa NB52019. The settings on record: Pseudomonas aeruginosa, CAMHB, 35° C., 20 hours, read-out: Antibacterial activity (MIC) NB52019. In outline:
as §1

The subject of test [3] is S. pneumoniae ATCC 25922 (NB07001). The test is described as follows: MIC by broth microdilution, S. pneumoniae NB07001. The settings on record: Streptococcus pneumoniae, ATCC25922, 20 h, read-out: Antibacterial activity (MIC) NB07001. In outline:
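CAMHB, ~5×10^5 CFU/mL, 2-fold serial dilutions (final DMSO 1%), 35° C, ambient air, 20 h. Read OD600 plus visual check; MIC = lowest conc. with no visible growth, μg/mL.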

The subject of test [4] is S. aureus ATCC 49951 (NB01006). The test is described as follows: MIC by broth microdilution, S. aureus NB01006. The settings on record: Staphylococcus aureus, ATCC49951, CAMHB, 35° C., 20 hours, read-out: Antibacterial activity (MIC) NB01006. In outline: as §1
Test [5] relates to E. faecalis ATCC 29212 (NB04001). The test is described as follows: MIC by broth microdilution, E. faecalis NB04001. The settings on record: Enterococcus faecalis, ATCC29212, CAMHB, 35° C., 20 hours, read-out: Antibacterial activity (MIC) NB04001. In outline:
as §1

In test [6] the test system is E. coli ATCC 25922 (NB27001). Kind of test: MIC by broth microdilution, E. coli NB27001. The settings on record: Escherichia coli, ATCC25922, CAMHB, 35° C., 20 hours, read-out: Antibacterial activity (MIC) NB27001. In outline: as §1
For test [7], the system named is S. aureus NB01080 fluoroquinolone-resistant clinical isolate. The test is described as follows: MIC by broth microdilution, S. aureus NB01080. The settings on record: Staphylococcus aureus, CAMHB, 35° C., 20 hours, read-out: Antibacterial activity (MIC) NB01080. In outline:
as §1

Consider `C[C@H]1COc2c(N3CCC(=C(Cl)CN)CC3)c(F)cc3cc(C(=O)O)c(=O)n1c23` [Example 1.10, (S)-10-(4-(2-amino-1-chloroethylidene)piperidin-1-yl)-9-fluoro-3-methyl-5-oxo-2,3-dihydro-5H-[1,4]oxazino[2,3,4-ij]quinoline-6-carboxylic acid], for which the MIC was greater than 32 mg/L in test [1]; greater than 32 mg/L in test [2]; less than 1 mg/L in test [3]; 1 to 32 mg/L (≈ 2.37 to 75.9 µM) in test [4]; 1 to 32 mg/L (≈ 2.37 to 75.9 µM) in test [5]; greater than 32 mg/L in test [6]. The MIC in test [7] lay within 1 to 32 mg/L (≈ 2.37 to 75.9 µM).

Consider `CNC1([C@@H]2CCN(c3c(F)cc4cc(C(=O)O)c(=O)n5c4c3OC[C@@H]5C)C2)CC1` [Example 1.12, (S)-9-fluoro-3-methyl-10-((R)-3-(1-(methylamino)cyclopropyl)pyrrolidin-1-yl)-5-oxo-2,3-dihydro-5H-[1,4]oxazino[2,3,4-ij]quinoline-6-carboxylic acid], for which the MIC in test [1] was 1 to 32 mg/L (≈ 2.49 to 79.7 µM); in test [2], greater than 32 mg/L; in test [3] it was less than 1 mg/L; in test [4], less than 1 mg/L; in test [5], 1 to 32 mg/L (≈ 2.49 to 79.7 µM); in test [6], 1 to 32 mg/L (≈ 2.49 to 79.7 µM). Also, the MIC in test [7] was 1 to 32 mg/L (≈ 2.49 to 79.7 µM).

For `C[C@H]1COc2c(N3CC4CCCC4(N)C3)c(F)cc3cc(C(=O)O)c(=O)n1c23` (stereo partly drawn) [Example 1.13, (3S)-10-(3a-aminohexahydrocyclopenta [c]pyrrol-2(1H)-yl)-9-fluoro-3-methyl-5-oxo-2,3-dihydro-5H-[1,4]oxazino[2,3,4-ij]quinoline-6-carboxylic acid], the MIC in test [1] was greater than 32 mg/L; in test [2], greater than 32 mg/L; in test [3] it was 1 to 32 mg/L (≈ 2.58 to 82.6 µM); in test [4], 1 to 32 mg/L (≈ 2.58 to 82.6 µM); in test [5] it was 1 to 32 mg/L (≈ 2.58 to 82.6 µM); in test [6], 1 to 32 mg/L (≈ 2.58 to 82.6 µM). For the same molecule, the MIC in test [7] is greater than 32 mg/L.

Turning to `C[C@H]1COc2c(N3CCN4C(=O)CCC4C3)c(F)cc3cc(C(=O)O)c(=O)n1c23` (stereo partly drawn) [Example 1.14, (3S)-9-fluoro-3-methyl-5-oxo-10-(6-oxohexahydropyrrolo[1,2-a]pyrazin-2(1H)-yl)-2,3-dihydro-5H-[1,4]oxazino[2,3,4-ij]quinoline-6-carboxylic acid], the MIC in test [1] was 1 to 32 mg/L (≈ 2.49 to 79.7 µM); in test [2], greater than 32 mg/L; in test [3], 1 to 32 mg/L (≈ 2.49 to 79.7 µM); in test [4] it was less than 1 mg/L; in test [5], 1 to 32 mg/L (≈ 2.49 to 79.7 µM); in test [6], greater than 32 mg/L. Further, the MIC in test [7] lay in the range of 1 to 32 mg/L (≈ 2.49 to 79.7 µM).

As for `C[C@H]1COc2c(N3Cc4ccncc4C3)c(F)cc3cc(C(=O)O)c(=O)n1c23` [Example 1.15, (S)-10-(1,3-dihydro-2H-pyrrolo[3,4-c]pyridin-2-yl)-9-fluoro-3-methyl-5-oxo-2,3-dihydro-5H-[1,4]oxazino[2,3,4-ij]quinoline-6-carboxylic acid], the MIC is 1 to 32 mg/L (≈ 2.62 to 83.9 µM) in test [1]; greater than 32 mg/L in test [2]; less than 1 mg/L in test [3]; less than 1 mg/L in test [4]; 1 to 32 mg/L (≈ 2.62 to 83.9 µM) in test [5]; 1 to 32 mg/L (≈ 2.62 to 83.9 µM) in test [6]. Besides, the MIC in test [7] was in the range of 1 to 32 mg/L (≈ 2.62 to 83.9 µM).

`C[C@H]1COc2c(N3CCC(F)(CN)C3)c(F)cc3cc(C(=O)O)c(=O)n1c23` (stereo partly drawn) [Example 1.16, (3S)-10-(3-(aminomethyl)-3-fluoropyrrolidin-1-yl)-9-fluoro-3-methyl-5-oxo-2,3-dihydro-5H-[1,4]oxazino[2,3,4-ij]quinoline-6-carboxylic acid]: the MIC in test [1] is 1 to 32 mg/L (≈ 2.64 to 84.4 µM); in test [2] it was greater than 32 mg/L; in test [3], less than 1 mg/L; in test [4] it was less than 1 mg/L; in test [5], 1 to 32 mg/L (≈ 2.64 to 84.4 µM); in test [6], 1 to 32 mg/L (≈ 2.64 to 84.4 µM). The MIC in test [7] was in the range of 1 to 32 mg/L (≈ 2.64 to 84.4 µM).

In the case of `C[C@H]1COc2c(N3CCC4(CC3)CNC4)c(F)cc3cc(C(=O)O)c(=O)n1c23` [Example 1.17, (S)-9-fluoro-3-methyl-5-oxo-10-(2,7-diazaspiro[3,5]nonan-7-yl)-2,3-dihydro-5H-[1,4]oxazino[2,3,4-ij]quinoline-6-carboxylic acid], the MIC in test [1], in test [2], in test [3], in test [4], in test [5] and in test [6] was greater than 32 mg/L each time. The MIC in test [7] is greater than 32 mg/L.

Consider `C[C@H]1COc2c(N3CC4CC4(CN)C3)c(F)cc3cc(C(=O)O)c(=O)n1c23` (stereo partly drawn) [Example 1.18], for which the MIC is greater than 32 mg/L in test [1]; greater than 32 mg/L in test [2]; 1 to 32 mg/L (≈ 2.68 to 85.7 µM) in test [3]; less than 1 mg/L in test [4]; 1 to 32 mg/L (≈ 2.68 to 85.7 µM) in test [5]; greater than 32 mg/L in test [6]. Moreover, the MIC in test [7] is greater than 32 mg/L.

As for `CC[C@H]1COc2c(N3CC[C@@H](C4(N)CC4)C3)c(F)cc3cc(C(=O)O)c(=O)n1c23` [Example 1.19, (S)-10-((R)-3-(1-aminocyclopropyl)pyrrolidin-1-yl)-3-ethyl-9-fluoro-5-oxo-2,3-dihydro-5H-[1,4]oxazino[2,3,4-ij]quinoline-6-carboxylic acid], the MIC in test [1] was greater than 32 mg/L; in test [2], greater than 32 mg/L; in test [3] it was less than 1 mg/L; in test [4], 1 to 32 mg/L (≈ 2.49 to 79.7 µM); in test [5] it was 1 to 32 mg/L (≈ 2.49 to 79.7 µM); in test [6], greater than 32 mg/L. The MIC in test [7] lay in the range of 1 to 32 mg/L (≈ 2.49 to 79.7 µM).

Consider `NC1([C@@H]2CCN(c3c(F)cc4cc(C(=O)O)c(=O)n5c4c3OCC5)C2)CC1` [Example 1.20, (R)-10-(3-(1-aminocyclopropyl)pyrrolidin-1-yl)-9-fluoro-5-oxo-2,3-dihydro-5H-[1,4]oxazino[2,3,4-ij]quinoline-6-carboxylic acid], for which the MIC in test [1] was greater than 32 mg/L; in test [2], greater than 32 mg/L; in test [3] it was 1 to 32 mg/L (≈ 2.68 to 85.7 µM); in test [4], 1 to 32 mg/L (≈ 2.68 to 85.7 µM); in test [5] it was 1 to 32 mg/L (≈ 2.68 to 85.7 µM); in test [6] it was greater than 32 mg/L. For the same molecule, the MIC in test [7] lay within 1 to 32 mg/L (≈ 2.68 to 85.7 µM).

With `C[C@@H]1COc2c(N3CC[C@@H](C4(N)CC4)C3)c(F)cc3cc(C(=O)O)c(=O)n1c23` [Example 1.21, (R)-10-((R)-3-(1-aminocyclopropyl)pyrrolidin-1-yl)-9-fluoro-3-methyl-5-oxo-2,3-dihydro-5H-[1,4]oxazino[2,3,4-ij]quinoline-6-carboxylic acid], the MIC in test [1] is greater than 32 mg/L; in test [2] it was greater than 32 mg/L; in test [3], 1 to 32 mg/L (≈ 2.58 to 82.6 µM); in test [4], 1 to 32 mg/L (≈ 2.58 to 82.6 µM); in test [5], greater than 32 mg/L; in test [6], greater than 32 mg/L. For the same molecule, the MIC in test [7] is greater than 32 mg/L.

Regarding `C[C@@H]1Cn2c(=O)c(C(=O)O)cc3cc(F)c(N4CC[C@@H](C5(N)CC5)C4)c(c32)O1` [Example 1.22, (R)-10-((R)-3-(1-aminocyclopropyl)pyrrolidin-1-yl)-9-fluoro-2-methyl-5-oxo-2,3-dihydro-5H-[1,4]oxazino[2,3,4-ij]quinoline-6-carboxylic acid], the MIC in test [1] is greater than 32 mg/L; in test [2] it was greater than 32 mg/L; in test [3], 1 to 32 mg/L (≈ 2.58 to 82.6 µM); in test [4], 1 to 32 mg/L (≈ 2.58 to 82.6 µM); in test [5], 1 to 32 mg/L (≈ 2.58 to 82.6 µM); in test [6], greater than 32 mg/L. The MIC in test [7] lay in the range of 1 to 32 mg/L (≈ 2.58 to 82.6 µM).

`C[C@H]1Cn2c(=O)c(C(=O)O)cc3cc(F)c(N4CC[C@@H](C5(N)CC5)C4)c(c32)O1` [Example 1.23, (S)-10-((R)-3-(1-aminocyclopropyl)pyrrolidin-1-yl)-9-fluoro-2-methyl-5-oxo-2,3-dihydro-5H-[1,4]oxazino[2,3,4-ij]quinoline-6-carboxylic acid]: the MIC in test [1] is greater than 32 mg/L; in test [2], greater than 32 mg/L; in test [3], 1 to 32 mg/L (≈ 2.58 to 82.6 µM); in test [4], greater than 32 mg/L; in test [5], greater than 32 mg/L; in test [6] it was 1 to 32 mg/L (≈ 2.58 to 82.6 µM). Also, in test [7], the MIC was greater than 32 mg/L.

As to `C[C@H]1CCOc2c(N3CC[C@@H](C4(N)CC4)C3)c(F)cc3cc(C(=O)O)c(=O)n1c23` [Example 1.24, (S)-11-((R)-3-(1-aminocyclopropyl)pyrrolidin-1-yl)-10-fluoro-4-methyl-6-oxo-3,4-dihydro-2H,6H-[1,4]oxazepino[2,3,4-ij]quinoline-7-carboxylic acid], the MIC in test [1] is 1 to 32 mg/L (≈ 2.49 to 79.7 µM); in test [2], greater than 32 mg/L; in test [3], less than 1 mg/L; in test [4], less than 1 mg/L; in test [5] it was less than 1 mg/L; in test [6], 1 to 32 mg/L (≈ 2.49 to 79.7 µM). In test [7], the MIC fell in the range of 1 to 32 mg/L (≈ 2.49 to 79.7 µM).

In the case of `C[C@H]1COc2c(N3Cc4cccc(F)c4C3)c(F)cc3cc(C(=O)O)c(=O)n1c23` [Example 1.25, (S)-9-fluoro-10-(4-fluoroisoindolin-2-yl)-3-methyl-5-oxo-2,3-dihydro-5H-[1,4]oxazino[2,3,4-ij]quinoline-6-carboxylic acid], the MIC in test [1] was greater than 32 mg/L; in test [2] it was greater than 32 mg/L; in test [3] it was 1 to 32 mg/L (≈ 2.51 to 80.3 µM); in test [4] it was less than 1 mg/L; in test [5], 1 to 32 mg/L (≈ 2.51 to 80.3 µM); in test [6], greater than 32 mg/L. Also, in test [7], the MIC is less than 1 mg/L.
